The numbers were not newly measured in patent publication US7589137B2, “Resin composition and molded product obtained therefrom” (Sony Corporation, priority 2005, dated 2009), which cites them from elsewhere.

For orientation: LD50 means the dose at which mortality reaches 50%.

The conditions of the data set: safety to a living body.

With `Cc1cc(O)nc(O)n1` [6-methyluracil], the LD50 was 64500 mg/kg. For the compound `O=c1cc[nH]c(=O)[nH]1` [Uracil, uracil], the LD50 result was “several”.
